{
  "source": "patent US20260297081A1",
  "about": "“COMPOUNDS AND METHODS OF TREATING CANCERS” (Cullgen Inc., priority 2023, published 2026)",
  "assay_type_in_all_cases": "cell-based",
  "key": {"T47D cells [1]": {"test_system": "T47D cells", "experiment": "Flow cytometric analysis of Annexin V/7-AAD stained T47D cells (apoptosis), 6 days (FIG. 3A)", "method": "(§1) T47D cells were treated with DMSO, palbociclib, heterobifunctional compound CPD-10 for 6 days at doses approximating IC50and IC90 concentrations as indicated (FIG. 3A). HCC1428 cells were treated with DMSO, palbociclib, heterobifunctional compound CPD-10, or its negative control compound CPD-143 for 6 days at doses approximating IC90 concentrations as indicated (FIG. 3B). Cells were harvested by trypsinization, staining was carried out using the Annexin V Apoptosis Detection Kit. The percentages of early apoptotic (Annexin V^+7-AAD^−, lower right quadrant), late apoptotic (Annexin V^+7-AAD^+, upper right quadrant) and necrotic cells (Annexin V^−7-AAD^+, upper left quadrant) are indicated on dot plots."}, "HCC1428 cells": {"test_system": "HCC1428 cells", "experiment": "Flow cytometric analysis of Annexin V/7-AAD stained HCC1428 cells (apoptosis), 6 days (FIG. 3B)", "conditions": "HCC1428, dose approximating IC90, 6 days", "method": "as §1"}, "[2]": {"test_system": "T47D palbo-resistant cells", "experiment": "CellTiter-Lumi cell viability assay, T47D palbo-resistant cells, 6 days (FIG. 4)", "conditions": "Homo sapiens, 144 h", "method": "Furthermore, we developed one ER^+ breast cancer T47D model with acquired resistance after long period of treatment with 1 μM palbociclib (over IC90). Cells were deemed resistant when growing in the presence of palbo at the same rate as parental cells. Palbo resistance was determined by CellTiter-Lumi cell viability assay (FIG. 4, IC50>10,000 nM)."}, "MCF7 cells": {"test_system": "MCF7 cells", "experiment": "Anti-proliferation (viability) of MCF7 cells (Table 7, FIG. 2B)", "conditions": "Homo sapiens, MCF7, MCF7 cells, 3-6 days, 10-point serial dilution; read-out: GI IC50 in MCF-7"}, "Calu-1 cells": {"test_system": "Calu-1 cells", "experiment": "Anti-proliferation (viability) of NSCLC Calu-1 cells, 3 days (Table 7, FIG. 2B)", "conditions": "Homo sapiens, 72 h; Calu-1 cells, 3 days, 10-point serial dilution; read-out: GI IC50 in Calu-1", "in_short": "(§2)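 Treatment length differs by line: Calu-1 cells receive degrader for 3 days, T47D cells for 6 days, each over a 10-point dilution series. A warhead-modified analogue with unchanged DDB1 binder and linker served as the non-CDK4-binding control.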"}, "T47D cells [3]": {"test_system": "T47D cells", "experiment": "Anti-proliferation (viability) of ER+ breast cancer T47D cells, 6 days (Table 7, FIG. 2B)", "conditions": "Homo sapiens, 144 h; T47D cells, 6 days, 10-point serial dilution; read-out: GI IC50 in T47D", "in_short": "as §2"}, "CDK4": {"biological_target": "CDK4 (Homo sapiens, UniProt P11802+Q16531)", "sequence (P11802 2-303 limits assumed)": "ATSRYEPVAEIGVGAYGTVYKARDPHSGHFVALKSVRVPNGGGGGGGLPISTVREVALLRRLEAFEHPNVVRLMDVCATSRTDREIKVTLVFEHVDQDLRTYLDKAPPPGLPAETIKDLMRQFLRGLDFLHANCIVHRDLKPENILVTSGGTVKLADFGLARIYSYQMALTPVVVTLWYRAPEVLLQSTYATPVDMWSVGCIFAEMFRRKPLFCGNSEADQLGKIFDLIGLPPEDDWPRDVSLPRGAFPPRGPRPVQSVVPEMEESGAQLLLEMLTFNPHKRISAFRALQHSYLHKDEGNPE", "sequence (P24385 whole entry partner)": "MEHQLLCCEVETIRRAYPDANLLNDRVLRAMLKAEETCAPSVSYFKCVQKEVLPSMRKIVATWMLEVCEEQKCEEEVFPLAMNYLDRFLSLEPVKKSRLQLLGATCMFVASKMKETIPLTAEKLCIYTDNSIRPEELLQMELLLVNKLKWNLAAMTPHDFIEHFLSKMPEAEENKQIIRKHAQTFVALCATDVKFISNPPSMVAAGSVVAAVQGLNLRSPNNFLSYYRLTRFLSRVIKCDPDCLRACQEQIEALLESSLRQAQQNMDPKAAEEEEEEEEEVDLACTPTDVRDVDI", "sequence (Q16531 2-1140 limits assumed)": "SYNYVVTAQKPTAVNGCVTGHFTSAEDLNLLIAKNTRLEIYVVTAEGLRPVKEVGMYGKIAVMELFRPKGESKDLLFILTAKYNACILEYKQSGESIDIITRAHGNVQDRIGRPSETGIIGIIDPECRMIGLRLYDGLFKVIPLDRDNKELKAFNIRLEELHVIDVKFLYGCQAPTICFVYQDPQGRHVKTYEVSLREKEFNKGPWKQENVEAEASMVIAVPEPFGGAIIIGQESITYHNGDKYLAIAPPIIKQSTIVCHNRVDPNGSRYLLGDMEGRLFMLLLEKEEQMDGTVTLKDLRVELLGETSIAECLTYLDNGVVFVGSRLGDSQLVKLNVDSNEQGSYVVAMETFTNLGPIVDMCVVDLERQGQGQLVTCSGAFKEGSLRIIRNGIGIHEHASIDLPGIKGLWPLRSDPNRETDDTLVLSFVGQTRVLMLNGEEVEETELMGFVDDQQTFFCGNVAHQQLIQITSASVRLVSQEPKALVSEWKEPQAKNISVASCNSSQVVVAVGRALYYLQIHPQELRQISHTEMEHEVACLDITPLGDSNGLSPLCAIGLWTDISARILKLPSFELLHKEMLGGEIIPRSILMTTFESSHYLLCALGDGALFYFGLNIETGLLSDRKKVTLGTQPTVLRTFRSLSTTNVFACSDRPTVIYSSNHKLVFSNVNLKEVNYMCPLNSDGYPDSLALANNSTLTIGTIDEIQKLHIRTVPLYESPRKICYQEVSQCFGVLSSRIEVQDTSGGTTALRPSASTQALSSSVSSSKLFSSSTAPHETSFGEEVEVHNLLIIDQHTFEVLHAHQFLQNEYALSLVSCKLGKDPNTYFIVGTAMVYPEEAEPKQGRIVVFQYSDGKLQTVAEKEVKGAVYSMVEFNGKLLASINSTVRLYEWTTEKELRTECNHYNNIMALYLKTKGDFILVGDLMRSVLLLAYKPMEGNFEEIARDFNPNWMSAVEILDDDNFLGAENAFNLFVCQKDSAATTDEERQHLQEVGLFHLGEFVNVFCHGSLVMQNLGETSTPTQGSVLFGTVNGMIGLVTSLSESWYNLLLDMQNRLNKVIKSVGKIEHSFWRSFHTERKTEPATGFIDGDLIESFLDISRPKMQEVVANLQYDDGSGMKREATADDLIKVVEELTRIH", "experiment": "Immunoblotting of CDK4 protein level in Calu-1 and MCF7 cells (FIG. 1A-1B)", "parameters": "Cells that express cyclin D1-3 and CDK4/6 proteins were treated with heterobifunctional compounds; endogenous in cells; host or cells: Calu-1", "method": "Calu-1 cells were treated with heterobifunctional compound CPD-10, or CDK4/6 inhibitor palbociclib at indicated concentrations for 4 hours (FIG. 1A). MCF7 cells were deprived of serum for 2 hours followed by treatment with CPD-10, or palbociclib at indicated concentrations for 24 hours (FIG. 1B).\nAntibody and Reagent Anti-cyclin D1 (29785), anti-cyclin D2 (3741S), anti-cyclin D3 (2936S), anti-CDK4 (127905), anti-CDK6 (3136S), anti-phospho-Rb (8516S), anti-FoxM1 (54365), anti-cyclinA2(4656S), anti-vinculin antibody (187995) antibodies were purchased from Cell Signaling Technology. HRP-conjugated anti-α-tubulin antibody and anti-α-GAPDH antibody were purchased from GNI. Media, and other cell culture reagents were purchased from Thermo Fisher Scientific. CellTiter-Glo Luminescent Assay kit was purchased from Promega.\nCalu-1, T47D, MCF7, HCC1428 and other cells were cultured at 37° C. with 5% CO2 in RPMI 1640 or DMEM medium supplemented with 10% fetal bovine serum. Cells were authenticated using the short tandem repeat (STR) assays. Mycoplasma test results were negative. For palbo-resistant cell model, T47D cells were cultured long-term to resistance in the presence of 1 μM Palbociclib. Cells were deemed resistant when growing in the presence of Palbo at the same rate as parental cells.\nCultured cells were washed with cold PBS once and lysed in cold RIPA buffer supplemented with protease inhibitors and phosphatase inhibitors (Beyotime Biotechnology). The solutions were then incubated at 4 ? for 30 min with gentle agitation to fully lysed cells. Cell lysates were centrifuged at 13,000 rpm for 10 min at 4 ? and pellets were discarded. Total protein concentrations in the lysates were determined following BCA assays (Beyotime Biotechnology). Cell lysates were mixed with Laemmli loading buffer and heated at 99° C. for 5 min. Proteins were resolved on SDS-PAGE and visualized using Western ECL Substrate kits on a ChemiDoc MP Imaging system (Bio-Rad). Protein bands were quantitated using the Image Lab software provided by Bio-Rad."}},
  "data": [
    {"smiles": "CNc1ccc(C(=O)Nc2ccc(N(C)C)nn2)c(NCCCCCCCNC(=O)CN2CCN(c3ccc(Nc4ncc5c(C)c(C(C)=O)c(=O)n(C6CCCC6)c5n4)nc3)CC2)n1", "note": "[CPD-10, 2-((7-(2-(4-(6-((6-acetyl-8-cyclopentyl-5-methyl-7-oxo-7,8-dihydropyrido[2,3-d]pyrimidin-2-yl)amino)pyridin-3-yl)piperazin-1-yl)acetamido)heptyl)amino)-N-(6-(dimethylamino)pyridazin-3-yl)-6-(methylamino)nicotinamide]", "values": [
      {"measurement": "Annexin V+ population", "setting": "T47D cells [1]; 15 nM", "value": 20.9, "unit": "%"},
      {"measurement": "Annexin V+ population", "setting": "T47D cells [1]; 200 nM", "value": 62.2, "unit": "%"},
      {"measurement": "Annexin V+ population", "setting": "HCC1428 cells", "value": 55.8, "unit": "%"},
      {"measurement": "IC50", "setting": "[2]", "value": 33, "unit": "nM"},
      {"measurement": "IC50", "setting": "MCF7 cells", "value": "50 to 100", "unit": "nM"},
      {"measurement": "IC50", "setting": "Calu-1 cells", "value": "≤ 10", "unit": "nM"},
      {"measurement": "IC50", "setting": "T47D cells [3]", "value": "≤ 50", "unit": "nM"},
      {"measurement": "CDK4 protein level", "setting": "CDK4; Calu-1 cells, 4 hours", "value": "reduced CCND1, CCND3, and CDK4 protein levels in a concentration-dependent manner in both cell lines"},
      {"measurement": "CDK4 protein level", "setting": "CDK4; MCF7 cells, serum deprived 2 hours, treated 24 hours", "value": "reduced CCND1, CCND3, and CDK4 protein levels in a concentration-dependent manner in both cell lines"}
    ]}
  ]
}
